Measured values from patent US20130302278A1, “USE OF TLR AGONISTS AND/OR TYPE 1 INTERFERONS TO ALLEVIATE TOXICITY OF TNF-R AGONIST THERAPEUTIC REGIMENS” (Immurx Inc., priority 2007, published 2013).

Experiments:
[1] = Serum transaminase (ALT, AST) analysis of hepatocellular injury; type: in vivo, mice; settings: 100 μg each i.v., 24 to 72 hours
Experimental: (§1) FIG. 5 This figure contains experiments that reveal that the hepatic toxicity associated with CD40 monotherapy is reversed with TLR7 agonism. FIG. 5(A, B) contain kinetic analysis of serum transaminases. Mice were treated with PBS, 100 μg CD40, 100 μg TLR7*, or both intravenously. Serum was isolated at various time points afterward, and serum levels of alanine transaminase (A) or aspartate transaminase (B) were measured as described. Data are representative of 3 independent experiments, with n=3 to 8 mice per group, per time point. (C-F) Histologic analysis of livers treated with PBS (C), […] CD40 (D), 100 μg TLR7* (E), or 100 μg CD40 and 100 μg TLR7*(F) for 48 hours. (G) Semiquantitative assessment of histopathologic changes in livers from mice treated as above for 48 hours. […]
(§2) Hepatocellular injury was biochemically assessed by measuring serum liver enzyme activity. […] Serum was harvested 24 to 72 hours later and levels of alanine aminotransferase (ALT) and aspartate aminotransferase (AST) were determined by standard clinical assays at the National Jewish Medical Center Core Lab (Denver, Colo.). For histologic analysis, livers from mice treated as above were fixed in buffered formalin, embedded in paraffin, sectioned, and stained with hematoxylin and eosin (H&E) prior to being coded and scored on a 0 to 4 scale in a blinded fashion. […]

[2] = system: memory CD8^+ T cells; experiment: Memory CD8+ T-cell function (intracellular cytokine staining) 60+ days after vaccination; type: in vivo, mice; settings: spleen and lung
Experimental: In the experiments depicted in FIG. 2, mice were immunized with 100 μg each of V peptide, CD40, and S-27609 in combinations as indicated. Memory CD8S functionality was assessed 65 days later. (A) Representative dot plots of IFN secretion by memory CD8^+ T cells isolated from spleens and lungs of vaccinated mice. Dot plots are gated on live CD8^+ cells, and numbers indicate the percentage of cells positive for both IFN and CD44. (B) Memory CD8^+ T-cell cytolytic activity was assessed by performing an in vivo cytotoxicity assay. Numbers reflect the percentage of antigen-specific lysis. (C,D) Quantification of relative and absolute numbers of memory CD8 cells expressing IFN in the spleen (C) and lung (D). Absolute numbers of positive cells were determined by multiplying the relative percentage of each cell population by the total number of cells isolated from each tissue. (E) Quantification of the in vivo cytotoxicity assay presented in panel B. P.001 by one-tailed ANOVA. […] Cells from panel F were analyzed for the ability to produce TNF and IL-2. […]
Mice were immunized with 100 μg each of V peptide, CD40, and S-27609 in combinations as indicated. Memory CD8 functionality was assessed 65 days later. […] (B) Memory CD8^+ T-cell cytolytic activity was assessed by performing an in vivo cytotoxicity assay. […] (E) Quantification of the in vivo cytotoxicity assay presented in panel B. P.001 by one-tailed ANOVA. […]

[3] = system: TRP2-specific CD8^+ T cells; experiment: Degranulation (CD107a) and expansion of CD8+ T cells in peripheral blood 7 days after immunization; type: in vivo, C57BL/6 mice; settings: 7 days after i.v. immunization, 100 μg each, groups given with V peptide
Source text: Seven days later, mice were bled and cells were restimulated in vitro with TRP2(180-188) to assess the ability to produce IFN and translocate CD107a as described in “Methods.” Lymphocytes were identified by forward and side scatter and subsequently gated on all CD8^+ events. (A) Representative dot plots from vaccinated mice. The numbers in the upper right corners indicate the frequency of CD8^+ T cells that are positive for IFN and CD44 (top row) or IFN and CD107a (bottom row). (B) Percentage of peripheral blood lymphocytes expressing the CD8 antigen. P.001 by one-tailed ANOVA (C) Quantification of the percentages of CD8^+ cells that degranulated in response to peptide restimulation. In all cases, data presented are representative of at least 3 independent experiments. […] P.001 by one-tailed ANOVA.
Cells from lung, spleen, or peripheral blood (peripheral blood lymphocytes [PBLs]) were incubated with 1 μg/mL Ova(257-264) or TRP2(180-188) peptide plus 10 U/mL IL-2 and 3 μg/mL brefeldin A in complete medium at 37° C. for 5 to 18 hours. […] The percentage of IFN^+ cells was calculated by subtracting the background observed with the irrelevant peptide control.

[4] = Macroscopic and histologic analysis of livers (H&E, 0 to 4 score); type: in vivo, mice
Experimental: as §1, §2

[5] = system: B16.F10 melanoma cells; experiment: Therapeutic vaccination against metastatic B16.F10 melanoma (lung metastases, survival)
Experimental: Therein, C57BL/6 mice were challenged with 10^5 metastatic B16.F10 melanoma cells intravenously. Four days later, mice were vaccinated with 100 μg of the tumor-associated antigen V, 100 μg CD40 FGK45, and 100 μg S-27609 in combinations as indicated. After 24 days, mice were killed, lungs were removed, and metastatic surface tumor nodules were enumerated with the aid of a dissecting microscope.
Mice were injected with 10^5 B16.F10 melanoma tumor cells intravenously to establish lung metastases. Four days later, naive or tumor-bearing mice were intravenously vaccinated with 100 μg V peptide, 100 μg anti-CD40, and 100 μg of the TLR7 agonist S-27609 in various combinations as indicated. Lungs were harvested approximately 20 days later, and metastases were enumerated with the aid of a dissection microscope. Alternatively, mice were monitored for survival over the next 90 days.
C57BL/6 mice were challenged with 10^5 metastatic B16.F10 melanoma cells intravenously. Four days later, mice were vaccinated with 100 μg of the tumor-associated antigen V, 100 μg CD40 FGK45, and 100 μg S-27609 in combinations as indicated. After 24 days, mice were killed, lungs were removed, and metastatic surface tumor nodules were enumerated with the aid of a dissecting microscope.

| Compound | plasma levels of ALT and AST [1] | persisting antigen-specific CD8^+ effector population [2] | CD8^+ cells expressing CD107a (degranulation after peptide restimulation) [3] | histologic analysis of liver ([4]; 48 hours after 100 μg each i.v.) | semiquantitative score of histologic liver damage ([4]; 48 hours, P=0.026, TLR7* added to CD40) | control of tumor progression (number of lung tumor nodules) ([5]; 10^5 B16.F10 i.v., treatment 4 days later, lungs at 24 days) | mean survival time ([5]; all mice succumbed to lung failure) |
| --- | --- | --- | --- | --- | --- | --- | --- |
| Cc1nc2c(N)nc3ccccc3c2n1CC(C)(C)O [TLR7*] | no effect on enzyme levels | failed to induce a significant pool | approximately 2% | minor inflammation without any observable coagulative necrosis | significantly reduces liver toxicity associated with CD40 monotherapy |  |  |
| SIYDFFVWL [tumor antigen] |  |  |  |  |  | ineffective in controlling tumor progression | 29 days |
